From patent publication US20250313533A1, “QUINOLINE CARBOXYLIC ACID ESTER COMPOUND AND PREPARATION METHOD AND USE THEREOF” (priority 2019, published 2025)

Legend:
[1] = system: stem rot in sweet potatoes; assay: whole plant or invertebrate; details: read-out: efficacy against stem rot in sweet potatoes
[2] = system: pathogenic bacteria causing black shank in potatoes; assay: In vitro bactericidal activity, black shank in potatoes; format: cell-based; details: read-out: inhibitory rate; for inhibition at 1 ppm: dosage 1 ppm; for inhibition at 5 ppm: dosage 5 ppm
[3] = system: pathogenic bacteria causing bacterial wilt in tobacco; assay: whole plant or invertebrate; format: cell-based, ralstonia; details: read-out: inhibitory rate
[4] = system: pathogenic bacteria causing bacterial angular leaf spot in cucumbers; assay: In vitro bactericidal activity, bacterial angular leaf spot in cucumbers; format: cell-based, pseudomonas; details: read-out: inhibitory rate; for inhibition at 1 ppm: dosage 1 ppm; for inhibition at 5 ppm: dosage 5 ppm
[5] = system: bacterial blight in rice; assay: whole plant or invertebrate; details: Oryza sativa, read-out: efficacy against bacterial blight in rice
[6] = system: pathogenic bacteria causing fruit blotch in watermelons; assay: In vitro bactericidal activity, fruit blotch in watermelons; format: cell-based, acidovorax; details: read-out: inhibitory rate; for inhibition at 1 ppm: dosage 1 ppm; for inhibition at 5 ppm: dosage 5 ppm
[7] = system: bacterial wilt in tobacco; assay: whole plant or invertebrate; details: Nicotiana tabacum, read-out: efficacy against bacterial wilt in tobacco
[8] = system: pathogenic bacteria causing fire blight in pears; assay: In vitro bactericidal activity, fire blight in pears; format: cell-based, erwinia; details: Erwinia, read-out: inhibitory rate; for inhibition at 1 ppm: dosage 1 ppm; for inhibition at 5 ppm: dosage 5 ppm
[9] = system: soft rot in Chinese cabbages; assay: whole plant or invertebrate; details: 48 h, read-out: efficacy against soft rot in Chinese cabbages
[10] = system: pathogenic bacteria causing bacterial blight in rice; assay: whole plant or invertebrate; format: cell-based, xanthomonas; details: read-out: inhibitory rate
[11] = system: indoor potted cucumber seedlings; assay: Effect of improving growth and development of crops; format: in vivo; parameters: Rate of growth rate increase (%): concentration or dose not given beside the values; details: versus blank control; for Rate of chlorophyll content increase (%) / Rate of leaf area increase (%): 14 days after application; for Rate of growth rate increase (%): plant height 14 days after application; for Rate of leaf area increase (%): second leaf
In short: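 Before treatment, plant height and the second leaf's length and width are recorded. After 14 days these are repeated, chlorophyll is read by meter, and percentage increases in growth rate, leaf area and chlorophyll are computed.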

[12] = system: pathogenic bacteria causing black rot in Chinese cabbages; assay: In vitro bactericidal activity, black rot in Chinese cabbages; format: cell-based, xanthomonas; details: Xanthomonas, read-out: inhibitory rate; for inhibition at 1 ppm: dosage 1 ppm; for inhibition at 5 ppm: dosage 5 ppm
[13] = system: pathogenic bacteria causing bacterial wilt in cassava; assay: organism not typed; format: cell-based; details: read-out: inhibitory rate
[14] = system: pathogenic bacteria causing stem rot in sweet potatoes; assay: In vitro bactericidal activity, stem rot in sweet potatoes; format: cell-based, dikia; details: read-out: inhibitory rate; for inhibition at 1 ppm: dosage 1 ppm; for inhibition at 5 ppm: dosage 5 ppm
[15] = system: fruit blotch in watermelons; assay: whole plant or invertebrate; details: read-out: efficacy against fruit blotch in watermelons
[16] = system: cucumber seedlings; assay: Safety for plant growth after application; format: in vivo; details: dosage 200 ppm
In short: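 Indoor potted cucumber seedlings were treated with the compounds, and crop safety was judged from effects on plant height growth rate, chlorophyll content and leaf area.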

[17] = system: black shank in potatoes; assay: Living crops in vivo protective activity, potatoes (root irrigation); details: Solanum tuberosum, read-out: efficacy against black shank in potatoes; for pest or weed control at 5 ppm: dosage 5 ppm; for pest or weed control at 10 ppm: dosage 10 ppm
Method: Root irrigation was carried out on the potatoes for tests according to the designed concentration of the agents. The dosage for each plant was 200 mL and was kept consistent (also for the control). The black shank bacteria were inoculated on the second day after the application. The results were investigated according to the disease condition.

SMILES | pest or weed control at 5 ppm [1] | pest or weed control at 10 ppm [1] | inhibition at 1 ppm [2] | inhibition at 5 ppm [2] | inhibition at 1 ppm [3] | inhibition at 5 ppm [3] | inhibition at 1 ppm [4] | inhibition at 5 ppm [4] | pest or weed control at 5 ppm [5] | pest or weed control at 10 ppm [5] | inhibition at 1 ppm [6] | inhibition at 5 ppm [6] | pest or weed control at 5 ppm [7] | pest or weed control at 10 ppm [7] | inhibition at 1 ppm [8] | inhibition at 5 ppm [8] | pest or weed control at 5 ppm [9] | pest or weed control at 10 ppm [9] | inhibition at 1 ppm [10] | inhibition at 5 ppm [10] | other results
CCOCOC(=O)c1cn(C2CC2)c2cc(Cl)c(F)cc2c1=O [Compound 144] | ≥ 90% | ≥ 90% | ≥ 80% | ≥ 90% | ≥ 80% | ≥ 90% | ≥ 80% | ≥ 90% | ≥ 80% | ≥ 90% | ≥ 80% | ≥ 90% | ≥ 90% | ≥ 90% | ≥ 80% | ≥ 90% | ≥ 80% | ≥ 90% | ≥ 80% | ≥ 90% | Rate of chlorophyll content increase (%) [11]: 18%; Rate of growth rate increase (%) [11]: 10%; Rate of leaf area increase (%) [11]: 13%; inhibition at 1 ppm [12]: ≥ 80%; inhibition at 5 ppm [12]: ≥ 90%; inhibition at 1 ppm [13]: ≥ 80%; inhibition at 5 ppm [13]: ≥ 90%; inhibition at 1 ppm [14]: ≥ 80%; inhibition at 5 ppm [14]: ≥ 90%; pest or weed control at 5 ppm [15]: ≥ 90%; pest or weed control at 10 ppm [15]: ≥ 90%; safety for plant growth (discoloration, necrosis, wilt, malformation) [16]: safe for plant growth; pest or weed control at 5 ppm [17]: ≥ 80%; pest or weed control at 10 ppm [17]: ≥ 90%
O=C(OCCCO)c1cn(C2CC2)c2cc(F)ccc2c1=O [Compound 207] | ≥ 90% | ≥ 90% | ≥ 90% | ≥ 90% | ≥ 90% | ≥ 90% | ≥ 90% | ≥ 90% | ≥ 90% | ≥ 90% | ≥ 90% | ≥ 90% | ≥ 90% | ≥ 90% | ≥ 90% | ≥ 90% | ≥ 90% | ≥ 90% | ≥ 90% | ≥ 90% | Rate of chlorophyll content increase (%) [11]: 13%; Rate of growth rate increase (%) [11]: 6%; Rate of leaf area increase (%) [11]: 10%; inhibition at 1 ppm [12]: ≥ 90%; inhibition at 5 ppm [12]: ≥ 90%; inhibition at 1 ppm [13]: ≥ 90%; inhibition at 5 ppm [13]: ≥ 90%; inhibition at 1 ppm [14]: ≥ 90%; inhibition at 5 ppm [14]: ≥ 90%; pest or weed control at 5 ppm [15]: ≥ 90%; pest or weed control at 10 ppm [15]: ≥ 90%; safety for plant growth (discoloration, necrosis, wilt, malformation) [16]: safe for plant growth; pest or weed control at 5 ppm [17]: ≥ 90%; pest or weed control at 10 ppm [17]: ≥ 90%
COCCOC(=O)c1cn(C2CC2)c2cc(OC3CC3)c(F)cc2c1=O [Compound 294, 2-methoxyethyl 7-cyclopropoxy-1-cyclopropyl-6-fluoro-4-oxo-1,4-dihydroquinoline-3-carboxylate] | ≥ 90% | ≥ 90% | ≥ 90% | ≥ 90% | ≥ 90% | ≥ 90% | ≥ 90% | ≥ 90% | ≥ 90% | ≥ 90% | ≥ 90% | ≥ 90% | ≥ 90% | ≥ 90% | ≥ 90% | ≥ 90% | ≥ 90% | ≥ 90% | ≥ 90% | ≥ 90% | Rate of chlorophyll content increase (%) [11]: 10%; Rate of growth rate increase (%) [11]: 9%; Rate of leaf area increase (%) [11]: 12%; inhibition at 1 ppm [12]: ≥ 90%; inhibition at 5 ppm [12]: ≥ 90%; inhibition at 1 ppm [13]: ≥ 90%; inhibition at 5 ppm [13]: ≥ 90%; inhibition at 1 ppm [14]: ≥ 90%; inhibition at 5 ppm [14]: ≥ 90%; pest or weed control at 5 ppm [15]: ≥ 90%; pest or weed control at 10 ppm [15]: ≥ 90%; safety for plant growth (discoloration, necrosis, wilt, malformation) [16]: safe for plant growth; pest or weed control at 5 ppm [17]: ≥ 90%; pest or weed control at 10 ppm [17]: ≥ 90%
COc1cc2c(cc1F)c(=O)c(C(=O)OCCO)cn2C1CC1 [Compound 264] | ≥ 90% | ≥ 90% | ≥ 90% | ≥ 90% | ≥ 90% | ≥ 90% | ≥ 90% | ≥ 90% | ≥ 90% | ≥ 90% | ≥ 90% | ≥ 90% | ≥ 90% | ≥ 90% | ≥ 90% | ≥ 90% | ≥ 90% | ≥ 90% | ≥ 90% | ≥ 90% | Rate of chlorophyll content increase (%) [11]: 12%; Rate of growth rate increase (%) [11]: 9%; Rate of leaf area increase (%) [11]: 11%; inhibition at 1 ppm [12]: ≥ 90%; inhibition at 5 ppm [12]: ≥ 90%; inhibition at 1 ppm [13]: ≥ 90%; inhibition at 5 ppm [13]: ≥ 90%; inhibition at 1 ppm [14]: ≥ 90%; inhibition at 5 ppm [14]: ≥ 90%; pest or weed control at 5 ppm [15]: ≥ 90%; pest or weed control at 10 ppm [15]: ≥ 90%; safety for plant growth (discoloration, necrosis, wilt, malformation) [16]: safe for plant growth; pest or weed control at 5 ppm [17]: ≥ 90%; pest or weed control at 10 ppm [17]: ≥ 90%
